Patent US20030232851A1, “Viral treatment” (The Procter & Gamble Company, priority 1999, published 2003)

Experiments:
Format in all cases: cell-based
[1] = test system: HIV-2 cell line, CEMROD; assay: Long term in vitro study, CEMROD, reverse transcriptase
Protocol: (§1) A microtiter-based reveres transcriptase (RT) reaction is utilized (Buckheit et al (1991) AIDS Research and Human Retroviruses 7:295-302). Tritiated thymidine triphosphate (NEN)(TTP) is resuspended in distilled water at 5 Ci/ml. Poly rA and oligo dT are prepared as a stock solution which is kept at −20° C. The RT reaction buffer is prepared fresh on a daily basis and consists of 125 μl 1M EGTA, 125 μl water, 125 μl Triton X-100, 50 μl Tris (pH 7.4), 50 μl 1 MDDT, and 40 μl 1M MgCl2. These three solutions are mixed together in a ratio of 1 part TTP, 2.5 parts poly rA:oligo dT, 2.5 parts reaction buffer and 4 parts distilled water. Ten microliters of this reaction mixture is placed in a round bottom microtiter place and 15 μl of virus containing supernatant is added and mixed. The plate is incubated at 37° C. for 60 minutes. Following reaction, the reaction volume is spotted onto filter mats, washed 6 times for 5 minutes each in a 5% sodium phosphate buffer, 2 times for 1 minute each in distilled water, 2 times for 1 minute each in 70% ethanol, and then dried. The dried filter mat is placed in a plastic sample bag, Betaplate scintillation fluid is added and the bag is heat sealed. Incorporated radioactivity is quantified utilizing a Wallac Microbeta scintillation counter.
(§2) Acute infection of most established human cell lines with HIV-1 results in the eventual establishment of a constitutive virus-producing chronically infected cell line. The cells can be passaged for long periods of time in culture without loss of virus production. These cells may be utilized to evaluate the effects of anti-HIV compounds on syncytium formation or to evaluate the effects of anti-HIV compounds on levels of virus production from these cells. […] Each of the cells contains an integrated HIV genome or provirus. Chronically infected CEM, H9 and U937 cell lines have been prepared and cultured by Southern Research Institute, Frederick Md. and are available from them.
(§3) CEM-SS cells chronically infected with HIV isolate, for example SKI (CEM-SKI) are cultured in RPMI1640 tissue culture medium supplemented with 10% fetal bovine serum and antibiotics. […] CEM-SKI or other infected cells with no added drug are used as the control cells. Cells are allowed to grow to a density of approximately 1×10^6 cells/ml and are then passaged at a 1:10 dilution. […] The drug concentration in the flask is then increased two-fold and the cells maintained as above.
(§4) The cell populations contain integrated copies of the HIV genome and constitutively produce HIV at relatively high levels or are latently infected and only produce virus after stimulation with phorbol esters, tumor necrosis factor or IL6 (U1 and ACH2). Reductions in virus products were observed when quantifying supernatant reverse transcriptase activity,
A long term in vitro study of 2-(2-thienyl)-imidazolo [4,5-b]pyridine against an HIV-2 cell line, CEMROD was conducted at three different levels. The results with CEMROD cells were reported at weekly intervals.

[2] = test system: HIV-1 cell line, CEMIIIB; assay: Long term in vitro study, CEMIIIB, reverse transcriptase
Protocol: as §1, §2, §3, §4
A long term in vitro study of 2-(2-thienyl)-imidazolo [4,5-b]pyridine against an HIV-1 cell line, CEMIIIB was conducted at three different levels. The results with CEMIIIB cells were reported at weekly intervals. The CEMIIIB is a viral strain of the CEMSS cell line and is a chronic HIV cell line.

[3] = test system: HIV-1 cell line, CEMSKI; assay: Long term in vitro study, CEMSKI, reverse transcriptase; details: run through 242 days
Protocol: as §1, with “Following reaction, the reaction volume is spotted onto filter mats, washed 6 times for 5 minutes each in a 5% sodium phosphate buffer, 2 times for 1 minute each in distilled water, 2 times for 1 minute each in 70% ethanol, and then dried. The dried filter mat is placed in a plastic sample bag, Betaplate scintillation fluid is added and the bag is heat sealed.” left out, “counter. […]” for “counter.”
as §4, with “activity, […]” for “activity,”

For `c1csc(-c2nc3cccnc3[nH]2)c1` [2-(2-thienyl)-imidazolo [4,5-b]pyridine], the reverse transcriptase data ([1]; 7 μg/ml, day 4) was 8506, the reverse transcriptase data ([1]; 7 μg/ml, day 11) was 9471 and the reverse transcriptase data ([1]; 7 μg/ml, day 18) was 6147. For the same compound, the reverse transcriptase data ([1]; 7 μg/ml, day 25) was 6302, the reverse transcriptase data ([1]; 7 μg/ml, day 32) was 5482 and the reverse transcriptase data ([1]; 7 μg/ml, day 39) was 7253. It also gave a reverse transcriptase data ([1]; 7 μg/ml, day 46) of 4822, a reverse transcriptase data ([1]; 7 μg/ml, day 53) of 7257 and a reverse transcriptase data ([1]; 7 μg/ml, day 60) of 7019. It also gave a reverse transcriptase data ([1]; 7 μg/ml, day 67) of 7215, a reverse transcriptase data ([1]; 7 μg/ml, day 71) of 9052 and a reverse transcriptase data ([1]; 7 μg/ml, day 74) of 6240. The reverse transcriptase data ([1]; 7 μg/ml, day 88) was 10053, the reverse transcriptase data ([1]; 7 μg/ml, day 95) was 7482 and the reverse transcriptase data ([1]; 7 μg/ml, day 102) was 8023. The reverse transcriptase data ([1]; 7 μg/ml, day 109) was 13890, the reverse transcriptase data ([1]; 15 μg/ml, day 4) was 7447 and the reverse transcriptase data ([1]; 15 μg/ml, day 11) was 8887. For the same compound, the reverse transcriptase data ([1]; 15 μg/ml, day 18) was 5399, the reverse transcriptase data ([1]; 15 μg/ml, day 25) was 5040 and the reverse transcriptase data ([1]; 15 μg/ml, day 32) was 4695. It also gave a reverse transcriptase data ([1]; 15 μg/ml, day 39) of 6277, a reverse transcriptase data ([1]; 15 μg/ml, day 46) of 2165 and a reverse transcriptase data ([1]; 15 μg/ml, day 53) of 6546. The reverse transcriptase data ([1]; 15 μg/ml, day 60) was 5940, the reverse transcriptase data ([1]; 15 μg/ml, day 67) was 3215 and the reverse transcriptase data ([1]; 15 μg/ml, day 71) was 7256. For the same compound, the reverse transcriptase data ([1]; 15 μg/ml, day 74) was 4687, the reverse transcriptase data ([1]; 15 μg/ml, day 88) was 8277 and the reverse transcriptase data ([1]; 15 μg/ml, day 95) was 5116. It also gave a reverse transcriptase data ([1]; 15 μg/ml, day 102) of 6546, a reverse transcriptase data ([1]; 15 μg/ml, day 109) of 10349 and a reverse transcriptase data ([1]; 30 μg/ml, day 4) of 4426. It also gave a reverse transcriptase data ([1]; 30 μg/ml, day 11) of 7092, a reverse transcriptase data ([1]; 30 μg/ml, day 18) of 3322 and a reverse transcriptase data ([1]; 30 μg/ml, day 25) of 3212. It also gave a reverse transcriptase data ([1]; 30 μg/ml, day 32) of 3960, a reverse transcriptase data ([1]; 30 μg/ml, day 39) of 4543 and a reverse transcriptase data ([1]; 30 μg/ml, day 46) of 1245. The reverse transcriptase data ([1]; 30 μg/ml, day 53) was 2402, the reverse transcriptase data ([1]; 30 μg/ml, day 60) was 2410 and the reverse transcriptase data ([1]; 30 μg/ml, day 67) was 1843. For the same compound, the reverse transcriptase data ([1]; 30 μg/ml, day 71) was 2121, the reverse transcriptase data ([1]; 30 μg/ml, day 74) was 1285 and the reverse transcriptase data ([1]; 30 μg/ml, day 88) was 2543. The reverse transcriptase data ([1]; 30 μg/ml, day 95) was 2245, the reverse transcriptase data ([1]; 30 μg/ml, day 102) was 2402 and the reverse transcriptase data ([1]; 30 μg/ml, day 109) was 1140. For the same compound, the “reverse transcriptase data on continuation (in words)” value ([1]; run through 242 days) was “data remained consistent”, the reverse transcriptase data ([2]; 7 μg/ml, day 4) was 4631 and the reverse transcriptase data ([2]; 7 μg/ml, day 11) was 4222. It also gave a reverse transcriptase data ([2]; 7 μg/ml, day 18) of 843, a reverse transcriptase data ([2]; 7 μg/ml, day 25) of 1052 and a reverse transcriptase data ([2]; 7 μg/ml, day 32) of 1456. It also gave a reverse transcriptase data ([2]; 7 μg/ml, day 39) of 4298, a reverse transcriptase data ([2]; 7 μg/ml, day 46) of 1643 and a reverse transcriptase data ([2]; 7 μg/ml, day 53) of 1458. It also gave a reverse transcriptase data ([2]; 7 μg/ml, day 60) of 1409, a reverse transcriptase data ([2]; 7 μg/ml, day 67) of 1903 and a reverse transcriptase data ([2]; 7 μg/ml, day 71) of 1832. It also gave a reverse transcriptase data ([2]; 7 μg/ml, day 74) of 1980, a reverse transcriptase data ([2]; 7 μg/ml, day 88) of 1520 and a reverse transcriptase data ([2]; 7 μg/ml, day 95) of 1367. It also gave a reverse transcriptase data ([2]; 7 μg/ml, day 102) of 1497, a reverse transcriptase data ([2]; 7 μg/ml, day 109) of 1165 and a reverse transcriptase data ([2]; 15 μg/ml, day 4) of 5622. It also gave a reverse transcriptase data ([2]; 15 μg/ml, day 11) of 1828, a reverse transcriptase data ([2]; 15 μg/ml, day 18) of 683 and a reverse transcriptase data ([2]; 15 μg/ml, day 25) of 741. For the same compound, the reverse transcriptase data ([2]; 15 μg/ml, day 32) was 1005, the reverse transcriptase data ([2]; 15 μg/ml, day 39) was 948 and the reverse transcriptase data ([2]; 15 μg/ml, day 46) was 1361. For the same compound, the reverse transcriptase data ([2]; 15 μg/ml, day 53) was 1281, the reverse transcriptase data ([2]; 15 μg/ml, day 60) was 679 and the reverse transcriptase data ([2]; 15 μg/ml, day 67) was 1251. The reverse transcriptase data ([2]; 15 μg/ml, day 71) was 1241, the reverse transcriptase data ([2]; 15 μg/ml, day 74) was 1361 and the reverse transcriptase data ([2]; 15 μg/ml, day 88) was 1201. It also gave a reverse transcriptase data ([2]; 15 μg/ml, day 95) of 562, a reverse transcriptase data ([2]; 15 μg/ml, day 102) of 1043 and a reverse transcriptase data ([2]; 15 μg/ml, day 109) of 1036. It also gave a reverse transcriptase data ([2]; 30 μg/ml, day 4) of 1968, a reverse transcriptase data ([2]; 30 μg/ml, day 11) of 2145 and a reverse transcriptase data ([2]; 30 μg/ml, day 18) of 554. It also gave a reverse transcriptase data ([2]; 30 μg/ml, day 25) of 436, a reverse transcriptase data ([2]; 30 μg/ml, day 32) of 712 and a reverse transcriptase data ([2]; 30 μg/ml, day 39) of 520. For the same compound, the reverse transcriptase data ([2]; 30 μg/ml, day 46) was 281, the reverse transcriptase data ([2]; 30 μg/ml, day 53) was 543 and the reverse transcriptase data ([2]; 30 μg/ml, day 60) was 406. For the same compound, the reverse transcriptase data ([2]; 30 μg/ml, day 67) was 391, the reverse transcriptase data ([2]; 30 μg/ml, day 71) was 281 and the reverse transcriptase data ([2]; 30 μg/ml, day 74) was 651. It also gave a reverse transcriptase data ([2]; 30 μg/ml, day 88) of 241, a reverse transcriptase data ([2]; 30 μg/ml, day 95) of 102 and a reverse transcriptase data ([2]; 30 μg/ml, day 102) of 256. The reverse transcriptase data ([2]; 30 μg/ml, day 109) was 376, the “reverse transcriptase data on continuation (in words)” value ([2]; run through 242 days) was “data remained consistent” and the “reverse transcriptase data on continuation (in words)” value [3] was “data remained consistent”.
